Experimental data reported in patent US12642791B2, “Inhibitors of lysyl oxidases” (UNIVERSITY OF SOUTH CAROLINA, priority 2021, dated 2026).

How the values were obtained:
LOXL2 = biological target: T1, LOXL2 (Homo sapiens, UniProt Q9Y4K0); assay: Lysyl oxidase activity assay with recombinant LOXL2 protein; type: biochemical; set-up: purchased Abcam, USA; settings: for inhibition of recombinant LOXL2: 10 μM compound
T1 sequence (Q9Y4K0 26-774): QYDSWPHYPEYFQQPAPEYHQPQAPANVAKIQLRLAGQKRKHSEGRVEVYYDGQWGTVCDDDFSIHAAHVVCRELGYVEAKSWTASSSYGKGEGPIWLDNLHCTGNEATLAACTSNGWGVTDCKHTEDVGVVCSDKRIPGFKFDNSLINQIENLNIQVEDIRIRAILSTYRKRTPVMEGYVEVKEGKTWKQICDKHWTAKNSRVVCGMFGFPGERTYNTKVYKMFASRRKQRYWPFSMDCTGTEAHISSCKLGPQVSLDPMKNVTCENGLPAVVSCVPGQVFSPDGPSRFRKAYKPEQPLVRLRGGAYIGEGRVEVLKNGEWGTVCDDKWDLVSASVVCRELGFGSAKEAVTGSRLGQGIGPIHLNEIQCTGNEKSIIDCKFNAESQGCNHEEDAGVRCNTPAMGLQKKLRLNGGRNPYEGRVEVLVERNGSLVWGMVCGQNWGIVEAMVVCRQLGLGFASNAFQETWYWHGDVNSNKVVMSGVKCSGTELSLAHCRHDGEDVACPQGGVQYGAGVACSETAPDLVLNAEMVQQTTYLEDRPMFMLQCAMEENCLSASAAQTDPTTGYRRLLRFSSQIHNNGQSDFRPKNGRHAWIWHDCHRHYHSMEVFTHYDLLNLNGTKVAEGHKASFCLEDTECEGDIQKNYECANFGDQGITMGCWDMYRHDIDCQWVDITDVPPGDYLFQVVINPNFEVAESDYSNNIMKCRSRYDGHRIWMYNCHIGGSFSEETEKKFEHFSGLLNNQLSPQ
Procedure: (§1) For in vitro lysyl oxidase activity (for recombinant proteins), Lysyl Oxidase Activity kit (Biovision, USA) was used according to manufacturer's instructions. Briefly, 1 μg of LOX (Novus, USA), 0.2 μg of LOXL1 (Abcam, USA) and 0.1 μg of LOXL2 (Abcam, USA) were incubated with the reagent mix in the presence of inhibitors or vehicle. Lysyl oxidase activity of the wells was measured in multimode reader (every 30 sec, total 2.5 hours) in […] mode.

[1] = tested on: cellular LOX activity, Caki-1; assay: Cell-based LOX activity in kidney cancer cell line; set-up: species or system human
Procedure: (§2) FIG. 39. Inhibition of cellular LOX activity in pancreatic and kidney cancer cell lines. Inhibition of cellular LOX activity upon the treatment with BAPN, 6232, 6403 and 6415 in kidney cell line Caki-1 (A) and pancreatic cancer cell lines Mia-Paca-2 (B) and PANC1 (C).
(§3) For cell-based lysyl oxidase activity, fluorometric Lysly Oxidase Activity Assay Kit (Abcam, USA) was used according to manufacturer's instructions. Briefly, after the treatment, 50 μl of supernatant from each well was incubated with reagent mix and fluorescence measured in multimode-reader at Ex/Em=540/590 nm wavelength.

[2] = tested on: ACHN kidney cancer cell line; assay: Growth inhibition in 3D collagen:matrigel culture (3D Cell Titer Glo); type: cell-based, human; settings: collagen:matrigel (1:1), uM range
Procedure: FIG. 38. Dose dependent inhibition of cellular LOX activity and growth inhibition in 3D upon treatment with 6232 and its analogs, 6403 and 6415.in ACHN cancer cell line. Inhibition of cell-based LOX activity in ACHN (A) and growth inhibition in collagen:matrigel (1:1) culture (B) cancer cell lines upon treatment with LOX inhibitors 6232, 6403 and 6415 (uM range). BAPN is used as a positive control (mM range) in 3D cell viability assay. Growth inhibition was measured by using 3D Cell Titer Glo kit.
(§4) Collagen solution was prepared at a concentration of 0.5-1 mg/ml from the rat tail collagen I (Corning, USA) with a neutralization step including the addition of 1N NaOH solution. Cells were trypsinazed and resuspended in collagen:matrigel mix (1:1). 8×10^3 cells were seeded into 96-well or μ-Slide 8-well glass bottom chambers. After 1 hour of incubation at room temperature, media was added on top of the solidified collagen:matrigel mix. Drug treatments were done 12 hours after cell seeding.

[3] = tested on: cellular LOX activity, PANC1; assay: Cell-based LOX activity in pancreatic cancer cell line; set-up: species or system human
Procedure: as §2, §3

[4] = tested on: cellular LOX activity, Mia-Paca-2; assay: as above; set-up: species or system human
Procedure: as §2, §3

recombinant LOX = biological target: T2, recombinant LOX (Homo sapiens, UniProt P28300); assay: Lysyl oxidase activity assay with recombinant LOX protein; type: biochemical; settings: for inhibition of recombinant LOX: 10 μM compound; for selectivity LOX versus LOXL2 / LOX family: recombinant proteins
T2 construct: purchased Novus, USA
T2 sequence (P28300 169-417): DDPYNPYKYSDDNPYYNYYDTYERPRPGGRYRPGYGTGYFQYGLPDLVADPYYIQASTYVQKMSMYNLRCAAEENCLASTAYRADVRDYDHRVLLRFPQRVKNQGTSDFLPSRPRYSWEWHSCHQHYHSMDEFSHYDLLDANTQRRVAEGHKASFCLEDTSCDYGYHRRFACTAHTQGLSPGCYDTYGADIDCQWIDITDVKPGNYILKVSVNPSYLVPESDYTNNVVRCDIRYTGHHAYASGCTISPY
Procedure: as §1

[5] = tested on: MDA-MB-231 cells embedded in collagen I; assay: ECM crosslinking by collagen and fibronectin immunofluorescence staining; type: cell-based, human
Procedure: FIG. 31. […] A. Inhibition of LOX activity in MDA-MB-231 cells treated with 5 μM of the LOX inhibitors. B. Doxorubicin sensitization with 6232 and its analogs, 6403 and 6415, in 3D collagen-I culture. C. Collagen and fibronectin staining of vehicle or 6232 or 6403 or 6415-treated MDA-MB-231 cells embedded in collagen I. BAPN is used as a positive control.
Immunofluorescence staining of cells was done in μ-Slide 8-well glass bottom chambers (Ibidi, Germany). Cells were fixed with 4% paraformaldehyde for 20 min, permeabilized with 0.5% Triton X-100 for 10 min and blocked in 5% BSA-PBS. Samples were incubated with primary (Collagen I, Fibronectin, F-actin, a-SMA) and secondary Alexa Fluor 647 or 488-labeled antibodies for 1.5 hours at room temperature. Cells were also counterstained with DAPI for 5 min. Images were acquired using ZEN 2012 SP5 (Black) LSM 700 (Carl Zeiss, DE).

HCC1143 = assay: Doxorubicin chemosensitization in 3D collagen I culture; type: cell-based, human; settings: collagen I-embedded cells, combination with doxorubicin
Procedure: as §4
(§5) Cells were embedded in type I collagen:matrigel mix as described above. Cells were grown in the presence of doxorubicin or LOX inhibitors alone or combination of LOX inhibitors with doxorubicin for 48 hours. After the treatment, cell viability was measured by using 3D Cell Titer Glo (Promega, USA) kit.

MDA-MB-231 cells = assay: as above; type: cell-based, human; settings: collagen I-embedded cells, combination with doxorubicin
Procedure: as §4, §5

inhibition of recombinant LOX (recombinant LOX) | Compound | inhibition of recombinant LOXL2 (LOXL2) | cellular LOX activity [1] | cell viability in 3D culture [2] | cellular LOX activity [3] | cellular LOX activity [4] | ECM crosslinking (collagen and fibronectin staining) [5] | inhibition of recombinant LOXL2 activity (LOXL2; 5 and 10 uM) | doxorubicin sensitization (HCC1143) | doxorubicin sensitization (MDA-MB-231 cells) | inhibition of recombinant LOX activity (recombinant LOX; 5 and 10 uM) | selectivity LOX versus LOXL2 / LOX family (recombinant LOX) | selectivity LOX versus LOXL2 / LOX family (recombinant LOX; listed as 4-((2′-amino-4′-methyl-[4,5′-bithiazol]-2-yl)(methyl)amino)phenol)
strongly inhibit | Cc1nc(N)sc1-c1csc(Nc2ccc([N+](=O)[O-])cc2)n1 [compound 6232, 4-methyl-5-[2-(4-nitroanilino)thiazol-4-yl]thiazol-2-amine] | moderately inhibit | inhibited cellular LOX activity | decrease in cell viability in 3D culture | inhibited cellular LOX activity | inhibited cellular LOX activity | decrease in ECM crosslinking |  |  |  |  |  | 
inhibits LOX recombinant protein | CC(=O)Nc1ccc(Nc2nc(-c3sc(N)nc3C)cs2)cc1 [compound 6403, N-[4-[[4-(2-amino-4-methyl-thiazol-5-yl)thiazol-2-yl]amino]phenyl]acetamide] |  | inhibited cellular LOX activity | decrease in cell viability in 3D culture | inhibited cellular LOX activity | inhibited cellular LOX activity | decrease in ECM crosslinking |  | led to doxorubicin sensitization | led to doxorubicin sensitization |  | more potent and selective inhibitor against LOX compared to LOXL2 | 

Compound | inhibition of recombinant LOX (recombinant LOX) | inhibition of recombinant LOXL2 (LOXL2) | cellular LOX activity [1] | cell viability in 3D culture [2] | cellular LOX activity [3] | cellular LOX activity [4] | ECM crosslinking (collagen and fibronectin staining) [5] | inhibition of recombinant LOXL2 activity (LOXL2; 5 and 10 uM) | doxorubicin sensitization (HCC1143) | doxorubicin sensitization (MDA-MB-231 cells) | inhibition of recombinant LOX activity (recombinant LOX; 5 and 10 uM) | selectivity LOX versus LOXL2 / LOX family (recombinant LOX) | selectivity LOX versus LOXL2 / LOX family (recombinant LOX; listed as 4-((2′-amino-4′-methyl-[4,5′-bithiazol]-2-yl)(methyl)amino)phenol)
Cc1nc(N)sc1-c1csc(N(C)c2ccc(O)cc2)n1 [compound 6415, 4-[[4-(2-amino-4-methyl-thiazol-5-yl)thiazol-2-yl]-methyl-amino]phenol] | inhibits both LOX and LOXL2 recombinant proteins | inhibits both LOX and LOXL2 recombinant proteins | inhibited cellular LOX activity | decrease in cell viability in 3D culture | inhibited cellular LOX activity | inhibited cellular LOX activity | decrease in ECM crosslinking | inhibited the activity of LOX and LOXL2 recombinant proteins | led to doxorubicin sensitization | led to doxorubicin sensitization | inhibited the activity of LOX and LOXL2 recombinant proteins | more like a LOX/LOXL2 inhibitor | non-selective inhibitor of the LOX family of enzymes
